The values that follow come from patent US9535057B2, “Method of in vivo screening for cardiac toxic agents using teleost” (CITY UNIVERSITY OF HONG KONG, priority 2007, dated 2017).

In this data set the test system is zebrafish embryos. The data set can be described thus: Cardiotoxicity screen in zebrafish embryos: heart rate and heart beat rhythm from video of blood circulation with power spectral analysis, and by direct examination of heart. The class given is in vivo. To be noted: 48-hpf zebrafish embryos, 2 μM haloperidol in egg medium, 4 hour incubation; direct examination of heart and power spectral analysis (FIG. 7); p<0.05 vs control.

Description: Before videoing blood cell circulation, the teleost is immobilized on a surface, for example, glass slide or plastic petri dish. Immobilization medium can be agarose, agar or methyl-cellulose. The optimal concentration of agarose or agar used is 0.5% (w/v) or lower. The concentration of methyl-cellulose used is 2-4% (w/v). Teleosts should be oriented in their spontaneous lateral position.
A video imaging system consists of a microscope, either stereomicroscope or conventional light microscope, with low magnification objective (FIG. 1). […] Video recorded in medium, e.g. VCR tape or mini DV tape, or recorded in personal computer is converted back to readable format, such as AVI or WMV format, and stored in personal computer for further video image analysis. […]
Data analysis of the series of the amount of differential pixels obtained from video image analysis is performed by methods implemented in the home-made software. Data series of amount of differential pixels is analyzed by comprising power spectral analysis in which data series of differential pixels is decomposed by discrete Fourier transform. […] A total power value of the spectrum is calculated. […]
The embodiment is tested in wild type embryos at 52 hpf. […] Heart rate is determined from direct visual counting of the number of heart beats in 1 min. […] In addition, the cardiac rhythm is determined as the standard deviation of heart beat time interval. […]

As to `O=C(CCCN1CCC(O)(c2ccc(Cl)cc2)CC1)c1ccc(F)cc1` [haloperidol], the heart rate result is reported as “significantly decreased”.
